In the oligonucleotide strings, read from the 5' end, every base follows the letter of its sugar. An asterisk marks phosphorothioate; unmarked linkages are phosphodiester. Other units and linkages are bracketed, terminal groups are in braces. A string of capitals states the bases alone. {NAG37} = tridentate N-acetyl-galactosamine targeting ligand, structure (NAG37)s; [invAb] = inverted abasic unit; m = 2'-O-methyl; f = 2'-fluoro
Legend:
ANGPTL3 mRNA [1] = test: Example 11: liver ANGPTL3 mRNA by RT-qPCR in mice; type: in vivo, C57bl/6 mice
Protocol: To assess the dose response of ANGPTL3 RNAi agent AD05488, six- to eight-week-old female C57bl/6 mice were used. Pre-dose serum samples were taken at day −1 after a four hour fast. At day 1, each mouse was given a single subcutaneous administration of 200 μl containing the respective mg/kg dose of an ANGPTL3 RNAi agent in D5W (dextrose in 5% water), or control (D5W) with no RNAi agent, according to the dosing groups recited in Table 53:
Additionally, ANGPTL3 mRNA levels were also assessed. All of the mice from each respective group were sacrificed on day 29 after serum collection, livers were harvested, and approximately 100 mg liver samples were collected and snap-frozen in liquid nitrogen for RNA isolation.

ANGPTL3 protein = test: Example 12: serum ANGPTL3 protein by ELISA in LDLR knockout mice; type: in vivo, LDLR KO mice
Description: (§1) To evaluate the effect of RNAi agent administration in a disease model, mice having a genetic mutation for the LDL receptor (referred to herein as LDLR KO mice) were commercially obtained (The Jackson Laboratory). The LDLR KO mice are homozygous for the Ldlr^tm1Her mutation, and have elevated serum cholesterol levels, particularly when placed on a high fat diet. For three weeks prior to the onset of the study, thirty-nine (39) LDLR KO mice were placed on a high fat diet (Teklad Custom Diets TD.88137). An additional eight (8) LDLR KO mice were placed on a normal chow diet over the same three-week period. Pre-dose serum samples were taken on day −15 and day −1 after a four hour fast. At day 1, each mouse was given a single subcutaneous administration of 200 μl/30 g animal body weight containing the respective mg/kg dose of an ANGPTL3 RNAi agent in D5W (dextrose in 5% water), control (D5W) with no RNAi agent, or a control RNAi agent that included a nucleotide sequence designed to target the Hepatitis B Virus (HBV) genome. A second injection of the same formulation was administered to the animals on day 29. The dosing regimen for the study is recited in the following Table 60:
(§2) Each mouse remained on its respective diet through the duration of study. The RNAi agent tested (AD05488) included a modified sequence and an N-acetyl-galactosamine-containing targeting ligand conjugated to the 5′ terminal end of the sense strand. (See Tables 3, […] modified sequences and targeting ligand structures). The injections were performed between the skin and muscle (i.e. subcutaneous injections) into the loose skin over the neck and shoulder area. Serum was collected on days 8, 15, 22, 29 (pre-second dose), 36, 43, 50, and 57. LDLR KO mice were fasted for four hours prior to each collection. On day 15, four (4) LDLR KO mice from Groups 1, 2, and 3 (i.e., the groups being administered the high fat “Western” diet) were sacrificed after serum collection, and on day 29, an additional four (4) LDLR KO mice from Groups 1, 2, and 3 were sacrificed after serum collection, for the purpose of performing mRNA assessments.
ANGPTL3 protein levels in serum were measured by ELISA assay (R&D Systems), according to the manufacturer's recommendations. Triglycerides, total cholesterol, high-density lipoprotein (HDL), and low-density lipoprotein (LDL) in serum were measured on a Cobas® Integra 400 (Roche Diagnostics), according to the manufacturer's recommendations.
The ANGPTL3 protein levels, triglyceride levels, total cholesterol levels, HDL levels, and LDL levels for each animal were normalized. For normalization, respective levels of ANGPTL3 protein, TG, total cholesterol, HDL, or LDL for each animal at a time point was divided by the average pre-treatment level of expression in that animal (in this case the average of day −15 and day −1) to determine the ratio of expression “normalized to pre-treatment.”
Expression at a specific time point was then normalized to the D5W control group that was administered the same diet (i.e., either the high fat “Western” diet or the normal chow-fed diet) by dividing the “normalized to pre-treatment” ratio for an individual animal by the mean “normalized to pretreatment” ratio of all mice in the D5W control group on the respective same diet, resulting in expression for each time point normalized to that in the control group.

ANGPTL3 mRNA [2] = test: Example 12: liver ANGPTL3 mRNA by RT-qPCR in LDLR knockout mice; type: in vivo, LDLR KO mice; settings: for Avg Relative ANGPTL3 mRNA, Normalized to Control: normalized to Group 1 day 15
Description: as §1, §2
Additionally, ANGPTL3 mRNA levels were also assessed. On day 15, four (4) mice were sacrificed from each of Groups 1, 2, and 3. On day 29, an additional four (4) mice were sacrificed from each of Groups 1, 2, and 3. On day 57, all remaining animals from all Groups were sacrificed. At sacrifice, livers were harvested, and approximately 100 mg liver samples from the median lobes were collected and snap-frozen in liquid nitrogen for RNA isolation. Levels of ANGPTL3 mRNA in the mice livers were then measured by RT-qPCR, and normalized to the mRNA levels of the mice in Group 1 (high fat “Western” diet; D5W administration; day 15 sacrifice), the results of which are set forth in the following Table 66: […]

[3] = day 57, two 3 mg/kg doses, LDLR KO mice on high fat Western diet

“AD05488: RNAi agent duplex: antisense AM07235-AS, sense AM07234-SS (antisense mU*fA*mC*fUmGfAmUfCmAfAmAfUmAfUmGfUmUfGmAfG*mC; sense {NAG37}*[invAb]*mGmCmUmCmAmAmCmAfUfAfUmUmUmGmAmUmCmAmGmUmA*[invAb])” was tested, and the “Avg Relative ANGPTL3 mRNA, Normalized to Control” value (ANGPTL3 mRNA [1]; 0.05 mg/kg single sc day 1, Day 29) was 0.798, the “Avg Relative ANGPTL3 mRNA, Normalized to Control” value (ANGPTL3 mRNA [1]; 0.1 mg/kg single sc day 1, Day 29) was 0.563 and the “Avg Relative ANGPTL3 mRNA, Normalized to Control” value (ANGPTL3 mRNA [1]; 0.5 mg/kg single sc day 1, Day 29) was 0.277. For the same substance, the “Avg Relative ANGPTL3 mRNA, Normalized to Control” value (ANGPTL3 mRNA [1]; 1.0 mg/kg single sc day 1, Day 29) was 0.123, the “Avg Relative ANGPTL3 mRNA, Normalized to Control” value (ANGPTL3 mRNA [1]; 2.5 mg/kg single sc day 1, Day 29) was 0.036 and the “Avg Relative ANGPTL3 mRNA, Normalized to Control” value (ANGPTL3 mRNA [1]; 5.0 mg/kg single sc day 1, Day 29) was 0.038. For the same substance, the “reduction in ANGPTL3 mRNA” value (ANGPTL3 mRNA [1]; day 29, single subcutaneous dose, C57bl/6 mice) was “reduction”, the “reductions in ANGPTL3 protein levels” value (ANGPTL3 protein; 3.0 mg/kg on days 1 and 29 (Groups 2 and 5), LDLR KO mice) was “significant reductions” and the “Avg ANGPTL3 Protein Normalized to Pre-Treatment and Control (Diet Matched)” value (“Avg ANGPTL3 Protein Normalized” for short) (ANGPTL3 protein; 3.0 mg/kg sc day 1, High Fat Diet, Day 8) was 0.013. For the same substance, the “Avg ANGPTL3 Protein Normalized” value (ANGPTL3 protein; 3.0 mg/kg sc day 1, High Fat Diet, Day 15) was 0.009, the “Avg ANGPTL3 Protein Normalized” value (ANGPTL3 protein; 3.0 mg/kg sc day 1, High Fat Diet, Day 22) was 0.011 and the “Avg ANGPTL3 Protein Normalized” value (ANGPTL3 protein; 3.0 mg/kg sc day 1, High Fat Diet, Day 29 (pre-second dose)) was 0.011. The “Avg ANGPTL3 Protein Normalized” value (ANGPTL3 protein; 3.0 mg/kg sc day 1, Normal Diet, Day 8) was 0.042, the “Avg ANGPTL3 Protein Normalized” value (ANGPTL3 protein; 3.0 mg/kg sc day 1, Normal Diet, Day 15) was 0.037 and the “Avg ANGPTL3 Protein Normalized” value (ANGPTL3 protein; 3.0 mg/kg sc day 1, Normal Diet, Day 22) was 0.043. The “Avg ANGPTL3 Protein Normalized” value (ANGPTL3 protein; 3.0 mg/kg sc day 1, Normal Diet, Day 29 (pre-second dose)) was 0.060, the “Avg ANGPTL3 Protein Normalized” value (ANGPTL3 protein; 3.0 mg/kg sc days 1 and 29, High Fat Diet, Day 36) was 0.005 and the “Avg ANGPTL3 Protein Normalized” value (ANGPTL3 protein; 3.0 mg/kg sc days 1 and 29, High Fat Diet, Day 43) was 0.005. The “Avg ANGPTL3 Protein Normalized” value (ANGPTL3 protein; 3.0 mg/kg sc days 1 and 29, High Fat Diet, Day 50) was 0.005, the “Avg ANGPTL3 Protein Normalized” value (ANGPTL3 protein; 3.0 mg/kg sc days 1 and 29, High Fat Diet, Day 57) was 0.007 and the “Avg ANGPTL3 Protein Normalized” value (ANGPTL3 protein; 3.0 mg/kg sc days 1 and 29, Normal Diet, Day 36) was 0.024. For the same substance, the “Avg ANGPTL3 Protein Normalized” value (ANGPTL3 protein; 3.0 mg/kg sc days 1 and 29, Normal Diet, Day 43) was 0.024, the “Avg ANGPTL3 Protein Normalized” value (ANGPTL3 protein; 3.0 mg/kg sc days 1 and 29, Normal Diet, Day 50) was 0.032 and the “Avg ANGPTL3 Protein Normalized” value (ANGPTL3 protein; 3.0 mg/kg sc days 1 and 29, Normal Diet, Day 57) was 0.037. The “ANGPTL3 protein normalized to pre-treatment and control (diet matched)” value (ANGPTL3 protein; [3]) was 0.007, the “reduction in ANGPTL3 protein levels compared to control” value (ANGPTL3 protein; [3]) was “approximately 99%” and the “Avg Relative ANGPTL3 mRNA, Normalized to Control” value (ANGPTL3 mRNA [2]; 3.0 mg/kg days 1 and 29, high fat diet, day 57 sacrifice) was 0.024. For the same substance, the “Avg Relative ANGPTL3 mRNA, Normalized to Control” value (ANGPTL3 mRNA [2]; 3.0 mg/kg days 1 and 29, normal chow, day 57 sacrifice) was 0.060, the “Avg Relative ANGPTL3 mRNA, Normalized to Control” value (ANGPTL3 mRNA [2]; 3.0 mg/kg, high fat diet, day 15 sacrifice) was 0.019 and the “Avg Relative ANGPTL3 mRNA, Normalized to Control” value (ANGPTL3 mRNA [2]; 3.0 mg/kg, high fat diet, day 29 sacrifice) was 0.032. The “reduction in ANGPTL3 mRNA levels” value (ANGPTL3 mRNA [2]; both high fat Western diet and normal chow-fed diet, LDLR KO mice) was “significant reduction”.

Source: patent US12729377B2, “RNAi agents and compositions for inhibiting expression of angiopoietin-like 3 (ANGPTL3), and methods of use” (Arrowhead Pharmaceuticals, Inc., priority 2017, dated 2026)
